PubChem BioAssay (NCI)
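All cell lines were grown in 96-well plates and treated with compound for 48 hours. Definition used: TGI = concentration required for complete inhibition of growth.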

Columns and labels:
Experiment in all cases: inhibition of tumour cell growth, NCI panel, 48 h
SK-OV-3 ovarian = test system: SK-OV-3 ovarian
SF-295 CNS = test system: SF-295 CNS
TK-10 renal = test system: TK-10 renal
M14 melanoma = test system: M14 melanoma
HOP-92 NSCLC = test system: HOP-92 NSCLC
KM12 colon = test system: KM12 colon
MALME-3M melanoma = test system: MALME-3M melanoma
NCI-H460 lung = test system: NCI-H460 lung
HCT-15 colon = test system: HCT-15 colon
SNB-19 CNS = test system: SNB-19 CNS

For `CCOC(=O)C(/C(=N/S(=O)(=O)c1cc(C)c(Cl)cc1[S-])[n+]1ccc(N(C)C)cc1)=C(/O)c1ccc([N+](=O)[O-])cc1`, the TGI (SK-OV-3 ovarian) was 68.4 µM, the TGI (SF-295 CNS) was 54.1 µM and the TGI (TK-10 renal) was 58.7 µM. The TGI (M14 melanoma) was 96.6 µM, the TGI (HOP-92 NSCLC) was 23.9 µM and the TGI (KM12 colon) was 82.7 µM. The TGI (MALME-3M melanoma) was 40.5 µM, the TGI (NCI-H460 lung) was > 100 µM and the TGI (HCT-15 colon) was > 100 µM.
In the case of `CC(C)(C)OC(=O)n1c2ccccc2c2c(=O)nc(N3CCCCC3)sc21`, the TGI (SK-OV-3 ovarian) is reported as > 100 µM, the TGI (SF-295 CNS) is reported as > 100 µM and the TGI (TK-10 renal) is reported as > 100 µM. The TGI (M14 melanoma) was > 100 µM, the TGI (HOP-92 NSCLC) was > 100 µM and the TGI (KM12 colon) was > 100 µM. The TGI (MALME-3M melanoma) was > 100 µM, the TGI (NCI-H460 lung) was > 100 µM and the TGI (SNB-19 CNS) was > 100 µM. The TGI (HCT-15 colon) was > 100 µM.
In the case of `O=C(O[C@@H](/C=C/c1ccccc1)P1(=O)N(Cc2ccccc2)[C@H]2CCCC[C@@H]2N1Cc1ccccc1)c1ccccc1`, the TGI (SK-OV-3 ovarian) is reported as 77.1 µM, the TGI (SF-295 CNS) is reported as > 100 µM and the TGI (TK-10 renal) is reported as 37 µM. The TGI (M14 melanoma) was > 100 µM, the TGI (HOP-92 NSCLC) was 45.2 µM and the TGI (KM12 colon) was 14.8 µM. For the same molecule, the TGI (MALME-3M melanoma) was 31.6 µM, the TGI (NCI-H460 lung) was 5.26 µM and the TGI (SNB-19 CNS) was > 100 µM. For the same molecule, the TGI (HCT-15 colon) was > 100 µM.
For `O=c1[nH]c(Nc2ccc(Cl)c(C(F)(F)F)c2)nc2nc[nH]c12`, the TGI (SK-OV-3 ovarian) was > 100 µM, the TGI (SF-295 CNS) was > 100 µM and the TGI (TK-10 renal) was > 100 µM. The TGI (M14 melanoma) was > 100 µM, the TGI (HOP-92 NSCLC) was > 100 µM and the TGI (KM12 colon) was > 100 µM. The TGI (MALME-3M melanoma) was > 100 µM, the TGI (NCI-H460 lung) was > 100 µM and the TGI (SNB-19 CNS) was > 100 µM. For the same molecule, the TGI (HCT-15 colon) was > 100 µM.
`OC(c1ccccc1)(c1ccccc1)c1nccc2ccccc12` was tested, and the TGI (SK-OV-3 ovarian) was 70.2 µM, the TGI (SF-295 CNS) was 36.2 µM and the TGI (TK-10 renal) was > 100 µM. For the same molecule, the TGI (M14 melanoma) was 49.9 µM, the TGI (KM12 colon) was > 100 µM and the TGI (MALME-3M melanoma) was 68 µM. The TGI (NCI-H460 lung) was 43.7 µM, the TGI (SNB-19 CNS) was > 100 µM and the TGI (HCT-15 colon) was > 100 µM.
In the case of `Cc1c(N2C(=O)/C(=C/c3ccc(Cl)cc3)N=C2c2ccccc2)c(=O)n(-c2ccccc2)n1C`, the TGI (SK-OV-3 ovarian) is reported as > 100 µM, the TGI (SF-295 CNS) is reported as > 100 µM and the TGI (TK-10 renal) is reported as 60.3 µM. The TGI (M14 melanoma) was > 100 µM, the TGI (HOP-92 NSCLC) was 66.6 µM and the TGI (KM12 colon) was > 100 µM. For the same molecule, the TGI (MALME-3M melanoma) was > 100 µM, the TGI (NCI-H460 lung) was > 100 µM and the TGI (HCT-15 colon) was 19.6 µM.
For `Nc1ncnc2c1sc1nc3ccccc3n12`, the TGI (SK-OV-3 ovarian) was > 100 µM, the TGI (SF-295 CNS) was > 100 µM and the TGI (TK-10 renal) was > 100 µM. The TGI (M14 melanoma) was > 100 µM, the TGI (HOP-92 NSCLC) was > 100 µM and the TGI (KM12 colon) was > 85 µM. The TGI (MALME-3M melanoma) was > 100 µM, the TGI (NCI-H460 lung) was > 100 µM and the TGI (SNB-19 CNS) was > 100 µM. For the same molecule, the TGI (HCT-15 colon) was > 100 µM.
With `Cc1coc2c1C[C@@]1(C)[C@H](CCC[C@@H]1C)[C@H]2O` the TGI (SK-OV-3 ovarian) was > 100 µM, the TGI (SF-295 CNS) was > 100 µM and the TGI (TK-10 renal) was > 100 µM. For the same molecule, the TGI (M14 melanoma) was > 100 µM, the TGI (HOP-92 NSCLC) was 66.2 µM and the TGI (KM12 colon) was > 100 µM. The TGI (MALME-3M melanoma) was 44.7 µM, the TGI (NCI-H460 lung) was > 100 µM and the TGI (SNB-19 CNS) was > 100 µM. The TGI (HCT-15 colon) was > 100 µM.
`N#CC12Cc3cc4c(cc3-c3cccc(c31)CCN2C(=O)c1ccccc1)OCO4` (stereo unspecified) was tested, and the TGI (SK-OV-3 ovarian) was > 100 µM, the TGI (SF-295 CNS) was > 100 µM and the TGI (TK-10 renal) was > 100 µM. For the same molecule, the TGI (M14 melanoma) was > 100 µM, the TGI (HOP-92 NSCLC) was 89.5 µM and the TGI (KM12 colon) was > 100 µM. The TGI (MALME-3M melanoma) was > 100 µM and the TGI (SNB-19 CNS) was > 100 µM.
Molecule `c1ccc(-c2nnn3c2NC2=C(CCCC2)C3c2ccccc2)cc1` (stereo unspecified) has a TGI (SK-OV-3 ovarian) of 50.7 µM, a TGI (SF-295 CNS) of 49.7 µM and a TGI (M14 melanoma) of 35.5 µM. For the same molecule, the TGI (KM12 colon) was 31.2 µM, the TGI (NCI-H460 lung) was 52.8 µM and the TGI (SNB-19 CNS) was > 100 µM. The TGI (HCT-15 colon) was 3.04 µM.
For `COc1ccc(C(=O)C2=NON3OC23C(=O)c2ccc(OC)cc2)cc1` (stereo unspecified), the TGI (SK-OV-3 ovarian) was 33.7 µM, the TGI (SF-295 CNS) was 34.1 µM and the TGI (TK-10 renal) was 34.1 µM. For the same molecule, the TGI (M14 melanoma) was 31 µM, the TGI (HOP-92 NSCLC) was 5.16 µM and the TGI (KM12 colon) was 36.6 µM. The TGI (MALME-3M melanoma) was 25.7 µM, the TGI (NCI-H460 lung) was 40 µM and the TGI (SNB-19 CNS) was 33.7 µM. It also gave a TGI (HCT-15 colon) of 36.6 µM.
With `COc1cc2oc(=O)ccc2cc1C(=O)CC(C)C` the TGI (SK-OV-3 ovarian) was > 100 µM, the TGI (SF-295 CNS) was > 100 µM and the TGI (TK-10 renal) was > 100 µM. For the same molecule, the TGI (M14 melanoma) was > 100 µM, the TGI (HOP-92 NSCLC) was > 100 µM and the TGI (KM12 colon) was > 100 µM. For the same molecule, the TGI (NCI-H460 lung) was > 100 µM, the TGI (SNB-19 CNS) was > 100 µM and the TGI (HCT-15 colon) was > 100 µM.
`Cn1cnc([N+](=O)[O-])c1Sc1nc(N)nc2c1ncn2C1OC(CO)C(O)C1O` (stereo unspecified) was tested, and the TGI (SK-OV-3 ovarian) was 45.5 µM, the TGI (SF-295 CNS) was > 72.6 µM and the TGI (TK-10 renal) was 87.6 µM. The TGI (M14 melanoma) was > 100 µM, the TGI (HOP-92 NSCLC) was > 100 µM and the TGI (KM12 colon) was 32.7 µM. The TGI (MALME-3M melanoma) was > 100 µM, the TGI (NCI-H460 lung) was 28.1 µM and the TGI (SNB-19 CNS) was > 100 µM. For the same molecule, the TGI (HCT-15 colon) was > 100 µM.
